Experimental data: ChEMBL document CHEMBL1201862, “PubChem BioAssay data set” (2004)
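Method: 48-hour compound exposure of cells in 96-well plates, five concentrations, linear interpolation of endpoints. At the GI50, growth is halved.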 The source made the active and inactive calls. Rule as the data show it: active = GI50 up to about 1.1 µM and inactive = higher.

Key:
Experiment in all cases: inhibition of tumour cell growth, NCI panel, 48 h
CAKI-1 = system: CAKI-1
CCRF-CEM = system: CCRF-CEM
COLO 205 = system: COLO 205
EKVX = system: EKVX
HL-60 = system: HL-60
HOP-92 = system: HOP-92
LOX IMVI = system: LOX IMVI
MDA-N = system: MDA-N
MOLT-4 = system: MOLT-4
NCI-H226 = system: NCI-H226
NCI-H23 = system: NCI-H23
OVCAR-5 = system: OVCAR-5
PC-3 = system: PC-3
RPMI-8226 = system: RPMI-8226
SK-OV-3 = system: SK-OV-3
SN12C = system: SN12C
U-251 = system: U-251
HOP-62 = system: HOP-62
Malme-3M = system: Malme-3M

SMILES | GI50 (CAKI-1) | GI50 (CCRF-CEM) | GI50 (COLO 205) | GI50 (EKVX) | GI50 (HL-60) | GI50 (HOP-92) | GI50 (LOX IMVI) | GI50 (MDA-N) | GI50 (MOLT-4) | GI50 (NCI-H226) | GI50 (NCI-H23) | GI50 (OVCAR-5) | GI50 (PC-3) | GI50 (RPMI-8226) | GI50 (SK-OV-3) | GI50 (SN12C) | GI50 (U-251) | GI50 (HOP-62) | GI50 (Malme-3M)
COc1cc2c(c(OC)c1OC)-c1ccc(SC)cc1[C@H](OC(=O)c1ccccc1)CC2 | 0.407 µM (active) | 0.0488 µM (active) | 0.188 µM (active) | 0.155 µM (active) | 0.146 µM (active) | 0.286 µM (active) | 0.0743 µM (active) | 0.0136 µM (active) | 0.151 µM (active) | 0.237 µM (active) | 0.0935 µM (active) | 0.622 µM (active) | 0.0673 µM (active) | 0.0424 µM (active) | 5.04 µM (inactive) | 0.254 µM (active) | 0.071 µM (active) | – | –
CCCc1nnc2sc(COc3ccc(OCc4nn5c(CCC)nnc5s4)c(Cl)c3)nn12 | 19.1 µM (inactive) | – | 23.2 µM (inactive) | 14.3 µM (inactive) | 14.8 µM (inactive) | 20.4 µM (inactive) | 33.7 µM (inactive) | 16.9 µM (inactive) | 24.9 µM (inactive) | > 100 µM (inactive) | 20.2 µM (inactive) | 50.4 µM (inactive) | 44.2 µM (inactive) | 19.5 µM (inactive) | 36.6 µM (inactive) | 29.4 µM (inactive) | 38.2 µM (inactive) | 47.8 µM (inactive) | 22.1 µM (inactive)
CCCNc1[nH]c(C(C)=O)c(N)c1C(=S)Nc1ccccc1 | 46.8 µM (inactive) | 46.5 µM (inactive) | 31.6 µM (inactive) | 35.2 µM (inactive) | 37.7 µM (inactive) | 34 µM (inactive) | 23.3 µM (inactive) | 41.4 µM (inactive) | 69.2 µM (inactive) | 21.7 µM (inactive) | 41 µM (inactive) | 68.9 µM (inactive) | > 100 µM (inactive) | – | 45.5 µM (inactive) | 32.8 µM (inactive) | 31.7 µM (inactive) | 42 µM (inactive) | 28 µM (inactive)
CCSC12CC3c4cccc5c4C(CN5C(=O)c4ccccc4)CC3(O1)N(C)C2=O (centres undefined) | 92 µM (inactive) | 28.6 µM (inactive) | 26.1 µM (inactive) | 24.2 µM (inactive) | 22.7 µM (inactive) | 24.1 µM (inactive) | 31.3 µM (inactive) | 25.3 µM (inactive) | 22.2 µM (inactive) | 39.6 µM (inactive) | 24.7 µM (inactive) | 83 µM (inactive) | 22.9 µM (inactive) | – | > 100 µM (inactive) | 17.2 µM (inactive) | 38.5 µM (inactive) | – | 35.6 µM (inactive)
CC(=O)O[C@H]1CCc2c(cc(N)c3c2C(=O)C[C@]2(C)C([C@H](C)CCCC(C)C)CCC32C)C1(C)C (some centres undefined) | > 100 µM (inactive) | > 100 µM (inactive) | > 100 µM (inactive) | > 100 µM (inactive) | 66.5 µM (inactive) | > 100 µM (inactive) | – | > 100 µM (inactive) | > 100 µM (inactive) | > 100 µM (inactive) | 60.5 µM (inactive) | > 100 µM (inactive) | 72.8 µM (inactive) | > 100 µM (inactive) | > 100 µM (inactive) | > 100 µM (inactive) | > 100 µM (inactive) | > 100 µM (inactive) | > 100 µM (inactive)
O=C(N/N=C1/C(=O)c2c3ccccc3cc3cccc1c23)c1cccc(Cl)c1 | > 100 µM (inactive) | 67.6 µM (inactive) | > 100 µM (inactive) | – | > 100 µM (inactive) | > 100 µM (inactive) | > 100 µM (inactive) | > 100 µM (inactive) | 0.711 µM (active) | > 100 µM (inactive) | > 100 µM (inactive) | > 100 µM (inactive) | > 100 µM (inactive) | > 100 µM (inactive) | > 100 µM (inactive) | > 100 µM (inactive) | 94.8 µM (inactive) | 28.9 µM (inactive) | –
O=c1[nH]nc(Cc2ccc(Cl)cc2)n1/N=C/c1ccco1 | > 100 µM (inactive) | > 100 µM (inactive) | > 100 µM (inactive) | > 100 µM (inactive) | > 100 µM (inactive) | 93.8 µM (inactive) | – | > 100 µM (inactive) | > 100 µM (inactive) | 84.5 µM (inactive) | 34.8 µM (inactive) | > 100 µM (inactive) | > 100 µM (inactive) | > 100 µM (inactive) | 80.2 µM (inactive) | > 100 µM (inactive) | 39.7 µM (inactive) | 48.6 µM (inactive) | > 100 µM (inactive)
CCOC(=O)/C(=N\Nc1ccc(-n2c(C)nc3ccc(Br)cc3c2=O)cc1)C(C)=O | > 100 µM (inactive) | 31.1 µM (inactive) | 54.3 µM (inactive) | 72.1 µM (inactive) | 5.32 µM (inactive) | 38 µM (inactive) | > 100 µM (inactive) | 71.1 µM (inactive) | 25.2 µM (inactive) | 77.8 µM (inactive) | 69.5 µM (inactive) | > 100 µM (inactive) | 44.6 µM (inactive) | 16.4 µM (inactive) | > 100 µM (inactive) | > 100 µM (inactive) | 59.6 µM (inactive) | 42.8 µM (inactive) | –
O=C1N=C(c2ccccc2)O/C1=C\c1ccccc1 | > 100 µM (inactive) | – | > 100 µM (inactive) | – | > 100 µM (inactive) | > 100 µM (inactive) | > 100 µM (inactive) | > 100 µM (inactive) | > 100 µM (inactive) | > 100 µM (inactive) | > 100 µM (inactive) | > 100 µM (inactive) | > 100 µM (inactive) | > 100 µM (inactive) | > 100 µM (inactive) | > 100 µM (inactive) | > 100 µM (inactive) | > 100 µM (inactive) | > 100 µM (inactive)
CC(C)CC1N=C(OCc2ccccc2)OC1=O (centres undefined) | > 100 µM (inactive) | > 100 µM (inactive) | > 10 µM (inactive) | > 100 µM (inactive) | – | > 100 µM (inactive) | > 100 µM (inactive) | > 100 µM (inactive) | > 100 µM (inactive) | > 100 µM (inactive) | > 100 µM (inactive) | > 100 µM (inactive) | > 100 µM (inactive) | > 100 µM (inactive) | > 100 µM (inactive) | > 100 µM (inactive) | > 100 µM (inactive) | > 100 µM (inactive) | > 100 µM (inactive)
c1ccc2c(c1)CCN2CCN1CCc2ccccc21 | > 10 µM (inactive) | > 10 µM (inactive) | > 10 µM (inactive) | > 10 µM (inactive) | > 10 µM (inactive) | > 10 µM (inactive) | > 10 µM (inactive) | > 10 µM (inactive) | > 10 µM (inactive) | > 10 µM (inactive) | > 10 µM (inactive) | > 10 µM (inactive) | > 10 µM (inactive) | > 10 µM (inactive) | > 10 µM (inactive) | > 10 µM (inactive) | > 10 µM (inactive) | > 10 µM (inactive) | –
O=c1oc2ccccc2cc1-c1cn2c(n1)sc1ccccc12 | > 100 µM (inactive) | > 100 µM (inactive) | > 100 µM (inactive) | 2.33 µM (inactive) | > 100 µM (inactive) | > 100 µM (inactive) | > 100 µM (inactive) | > 100 µM (inactive) | > 100 µM (inactive) | > 100 µM (inactive) | > 100 µM (inactive) | – | > 100 µM (inactive) | > 100 µM (inactive) | > 100 µM (inactive) | > 100 µM (inactive) | 83 µM (inactive) | > 100 µM (inactive) | –
O=c1cc(CN2CCCCC2)nc2ccc3c(O)cc(CN4CCCCC4)nc3n12 | > 100 µM (inactive) | > 100 µM (inactive) | > 100 µM (inactive) | > 100 µM (inactive) | > 100 µM (inactive) | 26.2 µM (inactive) | > 100 µM (inactive) | > 100 µM (inactive) | 89.7 µM (inactive) | > 100 µM (inactive) | > 100 µM (inactive) | > 100 µM (inactive) | > 100 µM (inactive) | > 100 µM (inactive) | 48.4 µM (inactive) | > 100 µM (inactive) | > 100 µM (inactive) | > 100 µM (inactive) | –
CC1(C)CSCC(C)(C)C(=N/N)/C1=N\N | > 100 µM (inactive) | – | > 100 µM (inactive) | > 100 µM (inactive) | > 100 µM (inactive) | > 100 µM (inactive) | > 100 µM (inactive) | > 100 µM (inactive) | – | > 100 µM (inactive) | > 100 µM (inactive) | > 100 µM (inactive) | > 100 µM (inactive) | – | > 100 µM (inactive) | > 100 µM (inactive) | > 100 µM (inactive) | > 100 µM (inactive) | > 100 µM (inactive)
COc1ccc(/[N+]([O-])=C/c2ccc(OC(=S)S)c(OC)c2)cc1 | 17 µM (inactive) | – | 44.9 µM (inactive) | 31.4 µM (inactive) | 17.3 µM (inactive) | 23.2 µM (inactive) | 38.5 µM (inactive) | 21.3 µM (inactive) | 33 µM (inactive) | 65.6 µM (inactive) | 29.6 µM (inactive) | > 100 µM (inactive) | 42.4 µM (inactive) | 30.3 µM (inactive) | 47.1 µM (inactive) | 37.7 µM (inactive) | 36.2 µM (inactive) | 39.7 µM (inactive) | 62.7 µM (inactive)
COC(=O)C(=O)C(C(=O)C(=O)Nc1ccccc1C(C)=O)c1nc2ccc(C(=O)c3ccccc3)cc2nc1O (centres undefined) | 25.9 µM (inactive) | – | – | 92.5 µM (inactive) | > 100 µM (inactive) | 75 µM (inactive) | > 100 µM (inactive) | 40.2 µM (inactive) | 56.2 µM (inactive) | 98.2 µM (inactive) | 35.2 µM (inactive) | > 100 µM (inactive) | 44 µM (inactive) | 63.1 µM (inactive) | > 100 µM (inactive) | > 100 µM (inactive) | – | 45.2 µM (inactive) | > 100 µM (inactive)
